Measurements reported in patent US20180371076A1, “MATERNAL TH17 CELLS AND PSYCHIATRIC DISORDERS” (New York University, priority 2017, published 2018).

Columns and labels:
[1] = system: Th17 cells; test: Flow cytometry of placenta/decidua CD4+ T cells: Th17; format: in vivo, mouse; settings: poly(I:C) vs PBS treatment, pregnant dams
Experimental: Cell preparation, Flow cytometry, ELISA Embryos at each implantation site were dissected in ice-cold HBSS containing Ca2+ and Mg2+ (Gibco). Myometrium was first peeled off of the decidua and embryos were discarded. Dissected decidual and placental tissues were then minced and enzymatically dissociated in HBSS containing 0.28 Wunsch units (WU)/mL Liberase (Roche) and 30 μg/mL DNase I (Roche) for 30 min at 37° C. with intermittent mixing. Digested tissues were washed in PBS containing 5 mM EDTA and 5% fetal bovine serum and then incubated again in the same buffer for 15 min at 37° C. prior to filtration through a cell strainer. […] Intracellular cytokine staining was performed according to the manufacturer's protocol (Cytofix/Cytoperm buffer set from BD with Pacific Blue-conjugated CD4, FITC or PerCP-Cy5.5-conjugated CD8, APC4 Cy7-conjugated TCR-β, PE-Cy7-conjugated anti-IL-17a, PE-conjugated anti-IFN-γ, PECy7-conjugated anti-CD25 and PE-conjugated Foxp3 (eBioscience). LSR II (BD Biosciences) and FlowJo software (Tree Star) were used for flow cytometry and analysis. Dead cells were excluded using the Live/Dead fixable aqua dead cell stain kit (Invitrogen). For ELISA with sera and placenta/decidua extract, IL-6 (Ebioscience), IL-17a, TNF-α, IL-1β, IFN-β (Biolgened), and IL-10 (BD) were measured according to the manufacturer's protocol.

[2] = system: offspring of pregnant mice (MIA mouse model); test: Open field test in adult offspring; format: in vivo
Experimental: Maternal Immune Activation. Mice were mated overnight and females were checked daily for the presence of seminal plugs, noted as embryonic day 0.5 (E0.5). On E12.5, pregnant female mice were weighed and injected with a single dose (20 mg/kg; i.p.) of poly(I:C) (Sigma Aldrich) or PBS vehicle. Each dam was returned to its cage and left undisturbed until the birth of its litter. All pups remained with the mother until weaning on postnatal day 21 (P21), at which time mice were group housed at maximum 5 per cage with same-sex littermates. For the IL-17 cytokine blockade experiment, monoclonal IL-17a blocking antibody (clone 50104; R&D) or isotype control antibody (IgG2a, clone 54447; R&D) was administered 6 h before maternal immune activation (FIG. 2) via i.p. route (500 μg/animal) or 2 days after maternal immune activation (FIG. 5) via i.p. route (500 μg/animal).
Open field test. Adult mice were placed in a 50×50 cm white Plexiglas box. Activity was recorded by a video camera and data was analyzed with Ethovision software (Noldus). The software allows display of the paths taken by the mice, and it measures the total distance moved into the center of the arena in a 10 min session.

poly(I:C)
placenta/decidua-associated Th17 cells [1]: increased
total distance covered in open field ([2]; offspring of MIA mothers): did not affect the total distance covered
time in the center of an open field ([2]; offspring of poly(I:C)-injected WT or RORγ/γt HET animals vs PBS-injected WT): significantly reduced time in the center
